Experimental data from patent publication US20110262360A1, “Compositions Comprising Enzyme-Cleavable Phenol-Modified Opioid Prodrugs and Inhibitors Thereof” (priority 2010, published 2011).
Several values for one entry are separate records, joined by “and”; a condition that tells them apart may be missing. Equal values may be shown once. Entries after “also recorded” stand apart in the source; their conditions may differ. Read-outs that look alike come from different tables or passages of the source.

Tests used:
[1] = Oral administration of Compound PC-1 and SBTI in the presence of ovalbumin to rats: hydromorphone in plasma; settings: for Cmax of hydromorphone in rat plasma: PC-1 20 mg/kg PO; for plasma Tmax of hydromorphone: rats; for Effect on Compound PC-1's ability to release hydromorphone: rats PO, PC-1 20 mg/kg with ovalbumin and/or SBTI
Description: In an effort to understand the role of SBTI, ovalbumin was used as a non-trypsin inhibitor protein control. Albumin from chicken egg white (ovalbumin) (Catalog No. A7641, Grade VII, lyophilized powder, Sigma-Aldrich) was dissolved in saline.

[2] = molecular target: T1, trypsin from bovine pancreas (Bos taurus, UniProt P00760); experiment: In vitro trypsin conversion of prodrugs to hydromorphone and inhibition by trypsin inhibitor
T1 sequence (P00760 24-246): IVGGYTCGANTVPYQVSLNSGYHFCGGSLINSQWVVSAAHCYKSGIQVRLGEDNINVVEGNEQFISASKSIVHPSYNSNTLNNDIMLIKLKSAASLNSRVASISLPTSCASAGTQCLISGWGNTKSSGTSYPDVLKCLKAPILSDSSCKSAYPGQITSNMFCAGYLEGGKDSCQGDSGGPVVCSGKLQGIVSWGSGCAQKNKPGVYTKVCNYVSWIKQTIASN
Description: The reactions were conducted at 37° C. for 24 hr. Samples were collected at specified time points, transferred into 0.5% formic acid in acetonitrile to stop trypsin activity and stored at less than −70° C. until analysis by LC-MS/MS.
The results are expressed as half-life of prodrug when exposed to trypsin (i.e., Prodrug trypsin half-life) in hours and rate of formation of HM per unit of trypsin.

[3] = Oral administration of Compound PC-1 and SBTI trypsin inhibitor to rats: hydromorphone in blood; settings: for Cmax of hydromorphone in rat blood: PC-1 20 mg/kg PO
[4] = Oral administration of Compound PC-1 and BBSI inhibitor to rats: hydromorphone in blood; settings: PC-1 20 mg/kg PO
[5] = Oral administration of Compound PC-2 and SBTI to rats: hydromorphone in plasma; settings: for Cmax of hydromorphone in rat plasma: PC-2 20 mg/kg PO
[6] = PC-3 20 mg/kg PO
[7] = for Cmax of hydromorphone in rat plasma / Tmax of hydromorphone in rat plasma: PC-3 20 mg/kg PO
[8] = PC-4 20 mg/kg PO
[9] = for Cmax of HM in rat plasma / Tmax of HM in rat plasma: PC-4 20 mg/kg PO
trypsin = molecular target: T2, trypsin (Bos taurus, UniProt P00760); experiment: In vitro IC50, modified trypsin assay; assay type: biochemical
T2 sequence (P00760 24-246): T1 sequence (P00760 24-246)

[10] = No trypsin inhibitor, 0.761 mM prodrug, 37° C., Tris pH 8

Molecule: CC(=O)NC(CCCNC(=N)N)C(=O)NCCN(C)C(=O)Oc1ccc2c3c1OC1C(=O)CCC4C(C2)N(C)CCC314 (stereo not drawn) [Compound PC-1, Hydromorphone 3-(N-methyl-N-(2-N′-acetylarginylamino)) ethylcarbamate]
- Cmax of hydromorphone in rat plasma ([1]; OVA 0 mg/kg, SBTI 0 mg/kg): 13.3 ± 3.7 ng/mL
- Cmax of hydromorphone in rat plasma ([1]; OVA 20 mg/kg, SBTI 0 mg/kg): 11.0 ± 5.4 ng/mL
- Cmax of hydromorphone in rat plasma ([1]; OVA 100 mg/kg, SBTI 0 mg/kg): 9.7 ± 3.1 ng/mL
- Cmax of hydromorphone in rat plasma ([1]; OVA 500 mg/kg, SBTI 0 mg/kg): 11.6 ± 2.5 ng/mL
- Cmax of hydromorphone in rat plasma ([1]; OVA 500 mg/kg, SBTI 500 mg/kg): 1.9 ± 0.9 ng/mL
- Cmax of hydromorphone in rat plasma ([1]; OVA 1000 mg/kg, SBTI 0 mg/kg): 10.3 ± 3.5 ng/mL
- plasma Tmax of hydromorphone ([1]; 20 mg/kg Compound PC-1 alone): 2.3 h
- plasma Tmax of hydromorphone ([1]; 20 mg/kg Compound PC-1 with 500 mg/kg OVA and 500 mg/kg SBTI): 8.0 h
- Rate of HM formation, umols/h/umol trypsin Average ± sd [2, 10]: 230 ± 8 umols/h/umol trypsin
- Cmax of hydromorphone in rat blood ([3]; SBTI 0 mg/kg): 16.5 ± 5.3 ng/mL
- Cmax of hydromorphone in rat blood ([3]; SBTI 10 mg/kg): 8.9 ± 1.8 ng/mL
- Cmax of hydromorphone in rat blood ([3]; SBTI 100 mg/kg): 6.0 ± 4.0 ng/mL
- Cmax of hydromorphone in rat blood ([3]; SBTI 500 mg/kg): <5 ng/mL
- Cmax of hydromorphone in rat blood ([3]; SBTI 1000 mg/kg): <5 ng/mL
- Cmax of hydromorphone in rat blood ([4]; BBSI 0 mg/kg, n = 4): 16.5 ± 5.3 ng/mL
- Cmax of rat not included in n = 3 analysis ([4]; BBSI 100 mg/kg, individual rat, blood): 43 ng/mL
- Cmax of hydromorphone in rat blood ([4]; BBSI 100 mg/kg, n = 3 (3 of the 4 rats)): 10.6 ± 5.9 ng/mL
- Cmax of hydromorphone in rat blood ([4]; BBSI 100 mg/kg, n = 4): 18.7 ± 17.0 ng/mL
- Cmax range of other rats ([4]; BBSI 100 mg/kg, the 3 other rats, blood): 6.8 to 17 ng/mL

Molecule: CN(CCNC(=O)[C@@H](N)CCCNC(=N)N)C(=O)Oc1ccc2c3c1OC1C(=O)CCC4C(C2)N(C)CCC314 (stereo partly drawn) [Compound PC-2, [2-((S)-2-amino-5-guanidino-pentanoylamino)-ethyl]-methyl-carbamic acid hydromorphyl ester]
- Cmax of hydromorphone in rat plasma ([5]; SBTI 0 mg/kg): 14.2 ± 2.6 ng/mL
- Cmax of hydromorphone in rat plasma ([5]; SBTI 500 mg/kg): 7.3 ± 3.5 ng/mL

Molecule: CC(=O)N[C@@H](CCCCN)C(=O)NCCN(C)C(=O)Oc1ccc2c3c1OC1C(=O)CCC4C(C2)N(C)CCC314 (stereo partly drawn) [Compound PC-3, (S)-2-Acetylamino-6-amino-hexanoic acid (2-methylamino-ethyl)-amide hydromorphone ester]
- Cmax of HM in rat plasma ([6]; Compound 101 0 mg/kg): 9.0 ± 3.1 ng/mL
- Tmax of HM in rat plasma ([6]; Compound 101 0 mg/kg): 2.3 h
- Cmax of HM in rat plasma ([6]; Compound 101 10 mg/kg): 3.8 ± 2.9 ng/mL
- Tmax of HM in rat plasma ([6]; Compound 101 10 mg/kg): 3.5 h
- Cmax of hydromorphone in rat plasma ([7]; SBTI 0 mg/kg): 9.0 ± 3.1 ng/mL
- Tmax of hydromorphone in rat plasma ([7]; SBTI 0 mg/kg): 2.3 h
- Cmax of hydromorphone in rat plasma ([7]; SBTI 500 mg/kg): 2.3 ± 1.7 ng/mL
- Tmax of hydromorphone in rat plasma ([7]; SBTI 500 mg/kg): 7.3 h

Molecule: CCN(CCNC(=O)[C@H](CCCNC(=N)N)NC(C)=O)C(=O)Oc1ccc2c3c1OC1C(=O)CCC4C(C2)N(C)CCC314 (stereo partly drawn) [Compound PC-4, [2-((S)-2-Acetylamino-5-guanidino-pentanoylamino)-ethyl]-ethyl-carbamic acid hydromorphone ester]
- Cmax of HM in rat plasma ([8]; Compound 101 0 mg/kg, n = 7): 7.7 ± 2.3 ng/mL
- Tmax of HM in rat plasma ([8]; Compound 101 0 mg/kg, n = 7): 2.3 h
- Cmax of HM in rat plasma ([8]; Compound 101 10 mg/kg, n = 4): 4.8 ± 1.4 ng/mL
- Tmax of HM in rat plasma ([8]; Compound 101 10 mg/kg, n = 4): 6.0 h
- Cmax of HM in rat plasma ([9]; SBTI 0 mg/kg, n = 7): 7.7 ± 2.3 ng/mL
- Tmax of HM in rat plasma ([9]; SBTI 0 mg/kg, n = 7): 2.3 h
- Cmax of HM in rat plasma ([9]; SBTI 500 mg/kg, n = 4): 7.5 ± 2.1 ng/mL
- Tmax of HM in rat plasma ([9]; SBTI 500 mg/kg, n = 4): 6.5 h
- Rate of HM formation, umols/h/umol trypsin Average ± sd [2, 10]: 322 umols/h/umol trypsin and 243 ± 1 umols/h/umol trypsin
- Rate of HM formation, umols/h/umol trypsin Average ± sd ([2]; With trypsin inhibitor 3,089 uM Compound 109): 3.27 ± 1.87 umols/h/umol trypsin

Molecule: CCN(CCNC(=O)[C@H](CCCCN)NC(=O)CC(=O)O)C(=O)Oc1ccc2c3c1O[C@H]1C(=O)CC[C@H]4[C@@H](C2)N(C)CC[C@]314 [Compound PC-5, [2-((S)-2-malonylamino-4-amino-pentanoylamino)-ethyl]-ethyl-carbamic acid hydromorphone ester]
- Rate of HM formation, umols/h/umol trypsin Average ± sd [2, 10]: 106 ± 2 umols/h/umol trypsin

Molecule: CCN(CCNC(=O)C(CCCNC(=N)N)NC(=O)CC(=O)O)C(=O)Oc1ccc2c3c1OC1C(=O)CCC4C(C2)N(C)CCC314 (stereo not drawn) [Compound PC-6, [2-(2-Malonyl-5-guanidino-pentanoylamino)-ethyl]-ethyl-carbamic acid hydromorphone ester]
- Rate of HM formation, umols/h/umol trypsin Average ± sd [2, 10]: 262 ± 11 umols/h/umol trypsin

B1: ovalbumin: Albumin from chicken egg white, used as a non-trypsin inhibitor protein control (protein, UniProt P01012 2-386, looked up)
Ovalbumin: GSIGAASMEFCFDVFKELKVHHANENIFYCPIAIMSALAMVYLGAKDSTRTQINKVVRFDKLPGFGDSIEAQCGTSVNVHSSLRDILNQITKPNDVYSFSLASRLYAEERYPILPEYLQCVKELYRGGLEPINFQTAADQARELINSWVESQTNGIIRNVLQPSSVDSQTAMVLVNAIVFKGLWEKAFKDEDTQAMPFRVTEQESKPVQMMYQIGLFRVASMASEKMKILELPFASGTMSMLVLLPDEVSGLEQLESIINFEKLTEWTSSNVMEERKIKVYLPRMKMEEKYNLTSVLMAMGITDVFSSSANLSGISSAESLKISQAVHAAHAEINEAGREVVGSAEAGVDAASVSEEFRADHPFLFCIKHIATNAVLFFGRCVSP
- Effect on Compound PC-1's ability to release hydromorphone [1]: does not significantly affect Compound PC-1's ability to release hydromorphone

B2: SBTI: trypsin inhibitor from Glycine max (soybean) (Catalog No. 93620, ˜10,000 units per mg, Sigma-Aldrich) (protein, UniProt P01070 25-205, looked up)
Trypsin inhibitor A: DFVLDNEGNPLENGGTYYILSDITAFGGIRAAPTGNERCPLTVVQSRNELDKGIGTIISSPYRIRFIAEGHPLSLKFDSFAVIMLCVGIPTEWSVVEDLPEGPAVKIGENKDAMDGWFRLERVSDDEFNNYKLVFCPQQAEDDKCGDIGISIDHDDGTRRLVVSKNKPLVVQFQKLDKESL
- Effect on Compound PC-1's ability to release hydromorphone [1]: suppresses Cmaxand delays Tmax of such hydromorphone in plasma, even in the presence of ovalbumin; also recorded: acting specifically by inhibiting trypsin rather than in a non-specific manner
- Effect of SBTI on Compound PC-4's ability to release hydromorphone ([9]; rats PO, PC-4 20 mg/kg with 500 mg/kg SBTI): attenuates Compound PC-4's ability to release hydromorphone, at least with respect to delaying Tmax
- Effect of SBTI on Compound PC-2's ability to release hydromorphone ([5]; rats PO, PC-2 20 mg/kg with 500 mg/kg SBTI): attenuates Compound PC-2's ability to release hydromorphone, both with respect to suppressing Cmaxand delaying Tmax
- IC50 (trypsin): 270 nM
- Effect of SBTI on Compound PC-1's ability to release hydromorphone ([3]; rats PO, PC-1 20 mg/kg with 10, 100, 500 or 1000 mg/kg SBTI): attenuates Compound PC-1's ability to release hydromorphone in a dose-dependent manner that can approach approximately 100% attenuation at higher SBTI concentrations; also recorded: suppresses Cmaxand delays Tmax
- Effect of SBTI on Compound PC-3's ability to release hydromorphone ([7]; rats PO, PC-3 20 mg/kg with 500 mg/kg SBTI): attenuates Compound PC-3's ability to release hydromorphone, both with respect to suppressing Cmaxand delaying Tmax
